Data published in PubChem BioAssay (NCI).
Values joined by “and” are separate entries in the source; they are usually repeats but may differ in a detail not shown here. Equal values may be shown once.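 All cell lines were grown in 96-well plates and treated with compound for 48 hours. GI50 = concentration required for 50% inhibition of growth. Definition used: TGI = concentration required for complete inhibition of growth.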

What was measured:
Experiment in all cases: growth of human tumour cells (NCI), 48 h
BT-549 breast = tested on: BT-549 breast
CAKI-1 renal = tested on: CAKI-1 renal
HCT-15 colon = tested on: HCT-15 colon
MALME-3M melanoma = tested on: MALME-3M melanoma
MDA-MB-231 breast = tested on: MDA-MB-231 breast
NCI-H522 lung = tested on: NCI-H522 lung
SF-268 CNS = tested on: SF-268 CNS
SNB-75 CNS = tested on: SNB-75 CNS
UACC-257 melanoma = tested on: UACC-257 melanoma
UACC-62 melanoma = tested on: UACC-62 melanoma

SMILES | GI50 (BT-549 breast) | TGI (BT-549 breast) | GI50 (CAKI-1 renal) | TGI (CAKI-1 renal) [µM] | GI50 (HCT-15 colon) | TGI (HCT-15 colon) [µM] | GI50 (MALME-3M melanoma) | TGI (MALME-3M melanoma) | GI50 (MDA-MB-231 breast) | TGI (MDA-MB-231 breast) [µM] | GI50 (NCI-H522 lung) | TGI (NCI-H522 lung) | GI50 (SF-268 CNS) | TGI (SF-268 CNS) | GI50 (SNB-75 CNS) | TGI (SNB-75 CNS) | GI50 (UACC-257 melanoma) | TGI (UACC-257 melanoma) | GI50 (UACC-62 melanoma) [µM] | TGI (UACC-62 melanoma) [µM]
CN(c1ncccc1CNc1nc(Nc2ccc3c(c2)CC(=O)N3)ncc1C(F)(F)F)S(C)(=O)=O | 2.21 µM and 2.53 µM | 7 µM and 9.25 µM | 2.15 µM and 2.87 µM | > 52.4 | 5.14 µM and 4.9 µM | > 80.5 | 2.98 µM and 2.89 µM | 10.2 µM and > 10 µM | 2.01 µM and 2.33 µM | > 100 | 1.81 µM and 2.24 µM | 5.41 µM and 7.71 µM | 2.33 µM and 2.65 µM | 13 µM and > 10 µM | 1.33 µM and 1.51 µM | 4.78 µM and 4.8 µM | 1.6 µM and 2.24 µM | 5.54 µM and 8.76 µM | 1.4 | 3.62
CC(N)C(Cc1ccc(Cl)cc1)c1ccc(Cl)cc1 (stereo not given) | 13.7 µM | 28.1 µM | 11.8 µM | 24.1 | 4.15 µM | 17.5 | 8.17 µM | 22.1 µM | 4.26 µM | 16.8 | 11.4 µM | 26.1 µM | 11.4 µM | 26.5 µM | 3.76 µM | 18.3 µM | – | – | 6.01 | 19.6
COc1ccc2c(c1)/C(=C\c1c(-c3cc(OC)ccc3OC)nc3sc(C)cn13)C(=O)N2C | 32.3 µM | > 100 µM | 18.3 µM | 86 | 33.9 µM | > 100 | > 100 µM | > 100 µM | 16.7 µM | 96.7 | 29.6 µM | > 100 µM | 28.6 µM | > 100 µM | 6.68 µM | 45.9 µM | 23.5 µM | 45.9 µM | 17.3 | 44.5
O=c1[nH]c2ccccc2c2ccccc12 | > 100 µM | > 100 µM | > 100 µM | > 100 | > 100 µM | > 100 | > 100 µM | > 100 µM | > 100 µM | > 100 | > 100 µM | > 100 µM | > 100 µM | > 100 µM | > 100 µM | > 100 µM | – | – | > 100 | > 100
CCOC(=O)/C(=C/N1CCN(C(=O)c2ccco2)C1=S)C(=O)c1ccccc1 | 8.96 µM | 25 µM | 15.9 µM | > 50 | 6.33 µM | 18.5 | 13.3 µM | 48.4 µM | 10.8 µM | 33.2 | – | – | 7.18 µM | 19.9 µM | 46 µM | > 50 µM | – | – | 7.64 | 17.5
NNC(=S)N/N=C(\C(=O)Nc1cccc(O)c1)C1C(=O)NC(=S)NC1=O | – | > 100 µM | – | > 100 | – | > 100 | – | > 100 µM | – | > 100 | – | > 100 µM | – | > 100 µM | – | > 100 µM | – | > 100 µM | – | > 100
COc1ccc(/C=C/C(=O)c2cc(OC)c(OC)c(OC)c2)cc1OCC(=O)Nc1nc2ccc(OC(F)(F)F)cc2s1 | 2.71 µM | 29.6 µM | 2.2 µM | 6.03 | 0.407 µM | 10.9 | 2.69 µM | 13.5 µM | 2.01 µM | 5.01 | 0.671 µM | 3.36 µM | 1.2 µM | 8.5 µM | 0.34 µM | 2.3 µM | 8.08 µM | > 100 µM | 9.52 | 42.1
COc1cc(/C=C\c2cc(OC)c(OC)c(OC)c2)cc(N/C=C\C(=O)c2ccc(OC(F)(F)F)cc2)c1OC | 5.9 µM | > 100 µM | 4.96 µM | > 100 | 3.42 µM | > 100 | 14.7 µM | > 100 µM | 3 µM | 14.5 | 1.96 µM | 6.19 µM | 8.9 µM | > 100 µM | 2.65 µM | 24 µM | 43.3 µM | > 100 µM | 6.86 | > 100
CC(C)(CN1CCCCC1)C(=O)/C=C/c1ccc(/C=C/C(=O)C(C)(C)CN2CCCCC2)cc1 | – | 3.35 µM | – | 0.904 | – | 0.703 | – | 2.24 µM | – | 0.476 | – | 0.167 µM | – | 1.71 µM | – | 1.82 µM | – | 2.13 µM | – | 2.35
C/C(=N\NC(=S)N1CCCCC1)c1ccccn1 | 0.745 µM | 5.27 µM | 0.103 µM | 5.22 | < 0.0169 µM | 12.6 | 0.145 µM | 3.05 µM | 0.123 µM | 6.33 | 0.136 µM | 1.51 µM | 0.0762 µM | 12.3 µM | 1.66 µM | 6.8 µM | < 0.01 µM | 0.442 µM | 0.106 | 3.93
COc1ccc(C2CC(c3cccc(Nc4ccnc5cc(Cl)ccc45)c3)=NN2C=O)cc1 (stereo not given) | 0.486 µM | 9.86 µM | 0.394 µM | 29.2 | 0.541 µM | > 100 | – | > 100 µM | 1.7 µM | > 66.4 | 0.265 µM | 3.06 µM | 1.37 µM | > 100 µM | 0.244 µM | 3.01 µM | 0.677 µM | 34.8 µM | 0.532 | 54.8
COC[C@@H](N=C1NC(=O)/C(=C/c2ccc3ncccc3c2)S1)c1ccccc1 | 7.85 µM | > 25 µM | 6.2 µM | > 22.4 | 7.01 µM | > 25 | > 23.1 µM | > 25 µM | 12.7 µM | > 25 | 7.7 µM | > 23.3 µM | 11.8 µM | > 25 µM | 4.83 µM | > 22 µM | 8.09 µM | > 25 µM | 11.6 | > 25
CC1=CC(=O)C2=C(C)CCC3C(C)C(=O)OC3C12 (stereo not given) | – | > 100 µM | – | > 100 | – | > 100 | – | > 100 µM | – | > 100 | – | > 100 µM | – | > 100 µM | – | – | – | > 100 µM | – | > 100
